# Tests used:
# [1] = tested on: mixed culture of 9L and 9L-ZP cells; test: Cytotoxicity toward mixed cultures; type: cell-based, rat; settings: 10 μM metyrapone
# Procedure: FIG. 28 is a bar graph depicting the cytotoxicity of oxazaphosphorines toward mixed cultures of 9L and 9L-ZP cells. Equal numbers of parental 9L cells were mixed with 9L-ZP cells (total initial cell number=1×10^5 /30 mm tissue culture dish). […] Cell numbers were determined 5 days after beginning drug treatment. Data (mean ±range of duplicates) are expressed as growth ratio (%) relative to drug-free controls.
# (§1) To test for drug sensitivity, 1×10^5 cells were plated in 30-mm tissue culture plates (Falcon 3046) in duplicate. Drugs were added 18-24 hours after seeding. Cells were allowed to grow for times ranging up to 5 days after drug treatment, and the final cell number was then determined. Cells were rinsed with phosphate buffered saline or Hank's buffered saline, dispersed using trypsin-EDTA (GIBCO/BRL, Inc.), and then counted with a hemocytometer. Results are expressed as a growth ratio, i.e., the number of cells in plates containing drug as a percentage of the corresponding drug-free controls (mean±range of duplicate determinations).
# [2] = tested on: parental 9L cells co-cultured with 9L-ZP cells; test: Co-culture experiments with culture inserts; type: cell-based, rat; settings: 10 μM metyrapone
# Procedure: Co-culture Experiments: Parental 9L cells were plated in the bottom wells of culture plates (Falcon 3502), and cytochrome P450 2B1-negative or cytochrome P450 2B1-positive cells were plated into 25 mm cell culture inserts (0.45 μm pore size, Falcon 3090). Culture media were removed 18-24 hours later by aspiration. Culture medium without drug (1.0 mL) was added to the bottom well, and 1.0 mL medium containing drug was added to the upper cell culture insert. Cell numbers were determined 5 days later, as described above.
# 9L-ZP cells = test: Drug sensitivity of cultured 9L cells with or without metyrapone; settings: 10 μM metyrapone
# C6 cells [3] = test: Cell proliferation assay; type: cell-based, rat; settings: 0.5 mM, four days
# Procedure: Cell proliferation assays: For cell proliferation assays, cells (2×10^5 per dish, unless otherwise noted) were plated onto 10 cm dishes. […] Incubations were continued for four days and cell numbers were assayed using a Coulter counter (Coulter Electronics Inc.), after harvesting in trypsinEDTA.
# C6 cells [4] = test: Trypsinization and replating assay; type: cell-based, rat; settings: Table V panel B; survivors of panel A replated, nine days
# Procedure: Trypsinization and replating assay: To determine the temporal kinetics of CPA-mediated cytotoxicity, 2×10^6 cells were plated onto each 10 cm dish. Twenty-four hours later, 0.5 mM CPA was added and cells were incubated for the times indicated in each figure. Cells were then trypsinized and replated at a density of 2×10^5 cells/10 cm dish. Nine days later, cell numbers were evaluated by Coulter counting.
# [5] = tested on: C6 cells exposed to CM from C6; test: C6 colony formation after conditioned medium from drug-exposed cells; type: cell-based, rat; settings: Table V panel C; CM from treated C6 cultures
# [6] = tested on: cytochrome P450 2B1-negative cells (parental 9L and 9L-Z); test: Drug sensitivity of cultured 9L cells; type: cell-based, rat; settings: 5 days
# Procedure: as §1
# [7] = tested on: cytochrome P450 2B1-positive cells (9L-ZP and L450-2); settings: 5 days
compound,measurement,setting,value
CC(C)(C(=O)c1cccnc1)c1cccnc1 [metyrapone],Effect on cyclophosphamide killing of mixed culture,[1],largely abrogate
same,Effect on cyclophosphamide killing of both cell populations,[2],effectively blocked
same,Effect on cytotoxic effect of 4-hydroperoxy cyclophosphamide,9L-ZP cells; 10 μM 4-hydroperoxy cyclophosphamide,did not block
same,Effect on cytotoxic effects of cyclophosphamide,9L-ZP cells; 1 mM cyclophosphamide,nearly eliminated
same,Effect on cytotoxic effects of ifosphamide,9L-ZP cells; 2 mM ifosphamide,nearly eliminated
"CCN(CC)P1(=O)NCCCO1 (centres unmarked) [DCPA, didechlorocyclophosphamide]",Effect on cell proliferation,C6 cells [3],had no effect
same,"Cell proliferation assay, number of cells",C6 cells [3]; Table V panel A,21.51±0.43 ×10^6
same,"Trypsinization and replating assay, cell count",C6 cells [4],20.58±0.33
same,"Secretion effect, C6 colony number",[5],301±4.6
O=P1(N(CCCl)CCCl)NC(OO)CCO1 (centres unmarked) [4-hydroperoxy cyclophosphamide],Sensitivity to activated cyclophosphamide,[6],inherently sensitive
same,Sensitivity to activated cyclophosphamide,[7],inherently sensitive

# — patent US5688773A, “Method of selectively destroying neoplastic cells” (priority 1994, dated 1997)
